Measured values from patent US8524744B2, “Arylamine ketones, their preparation methods, the pharmaceutical composition containing them and their use” (Institute of Mataria Medica, Chinese Academy of Medical …, priority 2004, dated 2013).

Test system: polymorphonuclear leucocytes from rat pleural cavity
Assay: release of β-glucuronidase by polymorphonuclear leucocytes from rat pleural cavity in vitro (PAF as irritant)
Type: cell-based
Procedure: 1% carrageenan was injected into the right pleural cavity of Wistar rat to induce polymorphonuclear leucocytes. The cells was suspended in Dulbecoo's buffer at the concentration of 2.5×10^6 cells·ml^1. The fluid containing the compound or solvent and 250 μl of cells suspension were added in test tube and incubated in 37° C. waterbath for 15 min. Then 2.5 μl of cytochalasin B (1×10^−3 mol·L^−1) was added and the reaction was continued for 5 min. Then 2.5 μl of PAF (1×10^−4 mol·L^−1) was added and for another 5 min. The test tubes were put into ice bath to stop the reaction. The supernatant was isolated and used as the β-glucuronidase release fluid. 25 μl of the enzyme fluid, 25 μl of phenolphthalein-glucuronic acid (2.5 mmol·L^−1) and 100 μl of acetic acid buffer (0.1 mol·L^−1) were added into each well of 96-well plate which was placed into incubater and kept at 37° C.3 for 18 hr. 150 μl of NaOH (0.3 mol·L^−1) was added in each well to cease the reaction and the optical density was read at 550 nm.

[1] = Dose 1 × 10^−5 mol · L^−1, Irritant 1 × 10^−6 mol · L^−1
[2] = Dose 1 × 10^−5 mol · L^−1, Irritant 2 × 10^−7 mol · L^−1
[3] = Dose 1 × 10^−5 mol · L^−1, Irritant 1 × 10^−7 mol · L^−1
[4] = Dose 1 × 10^−4 mol · L^−1, Irritant 2 × 10^−7 mol · L^−1

## COc1ccccc1N1CCN(CCC(=O)C=Cc2ccc(Cl)cc2)CC1.Cl [Compound 58]
[1]
  Inhibition (%) of β-glucuronidase release: 21.31%

## Cl.O=C(C=Cc1ccc(F)cc1)CCN1CCN(Cc2ccccc2)CC1 [Compound 44a, 5-[(N4-Benzyl)piperazyl]-1-(4-fluorophenyl)-1-penten-3-one hydrochloride]
[2]
  Inhibition (%) of β-glucuronidase release: 52.46%

## CCOC(=O)N1CCN(CCC(=O)C=Cc2ccc(O)cc2)CC1.Cl [Compound 24, 5-[(N4-Ethoxycarbonyl)piperazyl]-1-(4-hydroxyphenyl)-1-penten-3-one hydrochloride]
[3]
  Inhibition (%) of β-glucuronidase release: 120.85%

## CCOC(=O)N1CCN(CCC(=O)C=Cc2ccc(Br)cc2)CC1.Cl [Compound 30, 5-[(N4-Ethoxycarbonyl)piperazyl]-1-(4-bromophenyl)-1-penten-3-one hydrochloride]
[1]
  Inhibition (%) of β-glucuronidase release: 23.54%

## 5-[(N4-Benzyl)piperazyl]-1-(3,4-dimethoxyphenyl)-1-penten-3-one hydrochloride [Compound 48]
[1]
  Inhibition (%) of β-glucuronidase release: 25.87%

## CCOC(=O)C1CCCN(CCC(=O)C=Cc2ccc3c(c2)OCO3)C1.Cl (centres unmarked) [Compound 15, 5-[(3-Ethoxycarbonyl)piperidyl]-1-(3,4-methylenedioxyphenyl)-1-penten-3-one hydrochloride]
[3]
  Inhibition (%) of β-glucuronidase release: 141.17%

## Cl.O=C(C=Cc1ccc(C(F)(F)F)cc1)CCN1CCN(Cc2ccccc2)CC1 [Compound 44b, 5-[(N4-Benzyl)piperazyl]-1-(4-trifluoromethylphenyl)-1-penten-3-one hydrochloride]
[2]
  Inhibition (%) of β-glucuronidase release: 57.93%

## CCOC(=O)N1CCN(CCC(=O)C=Cc2ccc(C#N)cc2)CC1.Cl [Compound 34a, 5-[(N4-Ethoxycarbonyl)piperazyl]-1-(4-cyanophenyl)-1-penten-3-one hydrochloride]
Dose 2 × 10^−6 mol · L^−1, Irritant 1 × 10^−7 mol · L^−1
  Inhibition (%) of β-glucuronidase release: 121.34%

## CCOC(=O)N1CCN(CCC(=O)C=Cc2ccc(OC)cc2)CC1.Cl [Compound 34d, 5-[(N4-Ethoxycarbonyl)piperazyl]-1-(4-methoxyphenyl)-1-penten-3-one hydrochloride]
[1]
  Inhibition (%) of β-glucuronidase release: 62.64%

## Cl.O=C(C=Cc1ccc(F)cc1)CCN1CCC(Cc2ccccc2)CC1 [Compound 17, 5-[(4-Benzyl)piperidyl]-1-(4-fluorophenyl)-1-penten-3-one hydrochloride]
[1]
  Inhibition (%) of β-glucuronidase release: 37.64%

## 5-[(4-Ethoxycarbonyl)piperidyl]-1-(3,4-dimethoxyphenyl)-1-penten-3-one hydrochloride [Compound 4]
[1]
  Inhibition (%) of β-glucuronidase release: 28.05%

## 5-[N4-(3,4-Methylenedioxy(benzyl)piperazyl)]-1-(3,4,5-trimethoxy-phenyl)-1-penten-3-one hydrochloride [Compound 54]
[1]
  Inhibition (%) of β-glucuronidase release: 65.88%

## CCOC(=O)C1CCN(CCC(=O)C=Cc2ccc(OCC)c(OC)c2)CC1.Cl [Compound 5, 5-[(4-Ethoxycarbonyl)piperidyl]-1-(3-methoxy-4-ethoxyphenyl)-1-penten-3-one hydrochloride]
[1]
  Inhibition (%) of β-glucuronidase release: 45.34%

## Cl.O=C(C=Cc1ccc2c(c1)OCO2)CCN1CCN(Cc2ccccc2)CC1 [Compound 51, 5-[(N4-Benzyl)piperazyl]-1-(3,4-methylenedioxyphenyl)-1-penten-3-one hydrochloride]
[4]
  Inhibition (%) of β-glucuronidase release: 55.1%

## CCOC(=O)N1CCN(CCC(=O)C=Cc2cc(OC)c(OC)c(OC)c2)CC1.Cl [Compound 28, 5-[(N4-Ethoxycarbonyl)piperazyl]-1-(3,4,5-trimethoxy)phenyl-1-penten-3-one hydrochloride]
[4]
  Inhibition (%) of β-glucuronidase release: 21.8%

## CCOC(=O)C1CCN(CCC(=O)C=Cc2ccc(O)cc2)CC1.Cl [Compound 1, 5-[(4-Ethoxycarbonyl)piperidyl]-1-(4-hydroxyphenyl)-1-penten-3-one hydrochloride]
Dose 1 × 10^−5 mol · L^−1, Irritant 5 × 10^−7 mol · L^−1
  Inhibition (%) of β-glucuronidase release: 97.87%

## CCOC(=O)C1CCCN(CCC(=O)C=Cc2ccc(OC)c(OCC)c2)C1.Cl (centres unmarked) [Compound 12, 5-[(3-Ethoxycarbonyl)piperidyl]-1-(3-ethoxy-4-methoxyphenyl)-1-penten-3-one hydrochloride]
[3]
  Inhibition (%) of β-glucuronidase release: 181.48%
